# Laboratory results from patent US5866570A, “Treatment of vascular leakage and related syndrome such as septic shock by administration of metalloproteinase inhibitors” (Wisconsin Alumni Research Foundation, priority 1994, dated 1999).
# Read-outs that look alike come from different tables or passages of the source.
# Experiments:
# [1] = biological target: T1, recombinant human 72 kD type IV collagenase (Oncologix), APMA activated (Homo sapiens, UniProt P08253); experiment: gelatinase assay, Example 11; format: biochemical
# T1 construct: purchased Oncologix
# T1 sequence (P08253 110-660): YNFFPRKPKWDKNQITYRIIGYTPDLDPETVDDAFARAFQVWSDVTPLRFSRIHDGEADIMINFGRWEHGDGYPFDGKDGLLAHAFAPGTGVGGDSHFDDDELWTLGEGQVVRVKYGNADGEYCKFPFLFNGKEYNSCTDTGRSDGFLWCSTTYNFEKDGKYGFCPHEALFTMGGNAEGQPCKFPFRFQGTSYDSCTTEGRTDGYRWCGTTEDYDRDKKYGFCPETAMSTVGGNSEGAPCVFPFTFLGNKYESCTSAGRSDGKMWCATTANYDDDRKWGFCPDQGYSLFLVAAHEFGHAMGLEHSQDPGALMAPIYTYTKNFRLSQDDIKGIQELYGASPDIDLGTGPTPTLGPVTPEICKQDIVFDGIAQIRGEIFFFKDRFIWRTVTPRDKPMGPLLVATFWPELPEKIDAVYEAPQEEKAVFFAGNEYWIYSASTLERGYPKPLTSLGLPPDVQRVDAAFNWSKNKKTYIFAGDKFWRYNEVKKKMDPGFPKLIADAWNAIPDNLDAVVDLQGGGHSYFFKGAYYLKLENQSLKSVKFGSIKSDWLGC
# Experimental: NET-660 Collagen (Rat Type I), N-[Propionate-2-3-^3 H] Propionylated (NEN Dupont) with a specific activity of 0.4 mCi/mg, rat type I Collagen (Sigma), P-aminophenylmercuric acetate, APMA (Sigma), recombinant human 72 kD type IV collagenase (Oncologix) with a specific activity of at least 1000 μg collagen digested/hour/μg enzyme, collagenase buffer (50 mM Tris-HCl, 5 mM CaCl2, 200 mM NaCl, 0.02% Brij-35, pH 7.6), bovine serum albumin (BSA), 250 mM EDTA, and 10% TCA+0.7% tannic acid. The substrate is prepared by mixing the ^3 H collagen with the cold collagen at a 2/3 ratio and diluting in the collagenase buffer. The final assay concentration of the ^3 H collagen is 1% or between 20,000 to 40,000 cpm. Inhibitors are prepared just prior to use by dissolving in DMSO (final assay concentration<1%) or collagenase buffer.
# The 72 kD collagenase enzyme is activated with 0.5 mM APMA for 30 min. at 37° C. and 10 ng of enzyme per assay is used. Inhibitors are preincubated with activated enzyme for 2 hours at 37° C. in collagenase buffer. Substrate is then added to enzyme inhibitor mix and the assay is run for 20 min at 37° C. […] Undigested substrate is precipitated with the TCA/tannic acid solution and soluble counts are determined in a scintillation counter.
# BALB/C mice = experiment: septic shock induced by i.p. endotoxin (Salmonella abortus equi); format: in vivo; details: for Survival/Total Ratio after 24 h / Survival/Total Ratio after 48 h / Survival/Total Ratio after 72 h: endotoxin2 (Salmonella abortus equi) i.p., drug i.p. 1 h before, 9 h and 20 h after
# Experimental: Effect of razoxane in preventing death due to endotoxin-induced septic shock. Twelve BALB/c mice (female, 10-12 weeks old, 18-20 g) were injected i.p. with endotoxin (Salmonella abortus equi) twice at time zero (70 μg/mouse) and 48 h (30 μg/mouse). Razoxane (2 mg/mouse, in 1% sodium carboxymethyl cellulose) was given i.p. three times, i.e., 1 h. before, 9 h. and 20 h. after injection of initial dose of endotoxin. Another twelve mice, injected with endotoxin as above, were treated with buffer solution (1 % sodium carboxymethyl cellulose) as negative controls. It can be seen therein that the majority of control mice were dead within 50 hours of the initial endotoxin administration. In contrast, approximately 80% of the razoxane treated mice were still alive after 50 hours. Moreover, about 60% of the razoxane treated mice were still alive 100 hours after endotoxin administration, and recovered later on.
# Effect of Compound 80 in preventing death due to endotoxin-induced septic shock. Twenty BALB/c mice (female, 10-12 weeks old, 18-20 g) were injected i.p. with endotoxin (Salmonella abortus equi, 100 μg/mouse). Compound 80 (0.33 mg/mouse) was given i.p. to 10 mice three times, i.e., 1 hour before, 9 hours and 20 hours after injection of endotoxin. The other 10 mice were injected with diluents as negative controls. The number of the mice survived at different periods to time after endotoxin injection were recorded. (P<0.0002).
# [2] = razoxane 2 mg/mouse i.p. three times, endotoxin 70 μg at 0 h and 30 μg at 48 h
SMILES,"IC50 ([1]; 10 ng enzyme, 2 hours preincubation at 37° C., 20 min assay, 3H collagen substrate, read-out: IC50 for inhibition of the 72 kD collagenase type IV) [µM]",Survival/Total Ratio after 24 h (BALB/C mice),Survival/Total Ratio after 48 h (BALB/C mice),Survival/Total Ratio after 72 h (BALB/C mice),IC50 [1] [µM],treated mice still alive 100 hours after endotoxin administration (BALB/C mice; [2]),treated mice still alive after 50 hours (BALB/C mice; [2])
"CC1(C)O[C@H]2C[C@H](N3CC(=O)NC(=O)C3)[C@@H](N3CC(=O)NC(=O)C3)C[C@@H]2O1 (relative stereo) [Compound 80, (3aα, 5β, 6α, 7aβ)-4,4'-(hexahydro-2,2-dimethyl-1,3-benzodioxole-5,6-diyl)bis(2,6-piperazinedione)]",1.8,10/10,8/10,6/10,–,–,–
CC(CN1CC(=O)NC(=O)C1)N1CC(=O)NC(=O)C1 (stereo not shown) [razoxane],–,10/12,9/12,7/12,44,about 60%,approximately 80%
